Measurements from PMC6063800 (Peptides, 2018).
Structures can show the parent of a compound that is named as a salt. No end group written: not given here.

Key:
S. aureus USA300 biofilm = experiment: Disruption of 24-h preformed biofilms; format: cell-based, Staphylococcus aureus; settings: linezolid in the presence of 1.56 μM temporin-1OLa versus antibiotic alone, XTT
S. aureus USA300 = experiment: Checkerboard synergy of peptide and antibiotics; format: cell-based, Staphylococcus aureus; settings: in combination with temporin-1OLa
[1] = system: Staphylococcus aureus USA300; experiment: microbe, parasite or virus in culture; format: cell-based; settings: for MIC, SA: USA300, 20 h
Bacillus subtilis 168 = experiment: microbe, parasite or virus in culture; format: cell-based; settings: for MIC, BS: 168, 20 h
[2] = system: Escherichia coli ATCC 25922; experiment: microbe, parasite or virus in culture; format: cell-based; settings: for MIC, EC: ATCC 25922, 20 h
[3] = system: Klebsiella pneumoniae ATCC 13883; experiment: microbe, parasite or virus in culture; format: cell-based; settings: for MIC, KP: ATCC 13883, 20 h
[4] = system: Pseudomonas aeruginosa PAO1; experiment: microbe, parasite or virus in culture; format: cell-based; settings: PAO1, 20 h
[5] = system: Human red blood cells (hRBC); experiment: Hemolytic assay; format: cell-based; settings: red cells of human, 1 h
[6] = system: Candida albicans ATCC 10231; format: cell-based; settings: ATCC 10231, 48 h
C. glabrata ATCC 2001 = format: cell-based, Candida glabrata; settings: ATCC 2001, 48 h
C. tropicalis ATCC 13803 = format: cell-based, Candida tropicalis; settings: ATCC 13803, 48 h

## CC(=O)NC[C@H]1CN(c2ccc(N3CCOCC3)c(F)c2)C(=O)O1 [linezolid]
S. aureus USA300 biofilm
  disruption of 24 h established biofilms by combination: reduce biofilms more effectively
S. aureus USA300
  combined effect with the peptide: additive effect

## SILPTIVSFLSKVF [temporin-1Ga]
[1]
  MIC, SA: 3.1 µM
Bacillus subtilis 168
  MIC, BS: 6.3 µM
[2]
  MIC, EC: >50 µM
[3]
  MIC, KP: >50 µM
[4]
  MIC, PA: >50 µM
[5]
  HL50 (peptide concentration that causes 50% hemolysis): 12.5 µM
[6]
  MIC, C. albicans: 12.5 µM
C. glabrata ATCC 2001
  MIC, C. glabrata: 12.5 µM
C. tropicalis ATCC 13803
  MIC, C. tropicalis: 3.1 µM

## FLPLLASLFSRLF [temporin-1Oc]
Bacillus subtilis 168
  MIC, BS: 12.5 µM
[2]
  MIC, EC: >50 µM
[3]
  MIC, KP: >50 µM
[4]
  MIC, PA: >50 µM
[5]
  HL50 (peptide concentration that causes 50% hemolysis): <12.5 µM
[6]
  MIC, C. albicans: 25 µM
C. glabrata ATCC 2001
  MIC, C. glabrata: 25 µM
C. tropicalis ATCC 13803
  MIC, C. tropicalis: 1.6 to 3.1 µM

## CN[C@H](CC(C)C)C(=O)N[C@H]1C(=O)N[C@@H](CC(N)=O)C(=O)N[C@H]2C(=O)N[C@H]3C(=O)N[C@H](C(=O)N[C@H](C(=O)O)c4cc(O)cc(O)c4-c4cc3ccc4O)[C@H](O)c3ccc(c(Cl)c3)Oc3cc2cc(c3O[C@@H]2O[C@H](CO)[C@@H](O)[C@H](O)[C@H]2O[C@H]2C[C@](C)(N)[C@H](O)[C@H](C)O2)Oc2ccc(cc2Cl)[C@H]1O [Vancomycin, vancomycin hydrochloride, reference compound]
[1]; Staphylococcus aureus, MRSA|USA300, 20 h, read-out: MIC, SA
  MIC: 0.78 µM
Bacillus subtilis 168; Bacillus subtilis, 168, 20 h, read-out: MIC, BS
  MIC: > 3.1 µM
[2]; Escherichia coli, ATCC25922, 20 h, read-out: MIC, EC
  MIC: > 50 µM
[3]; Klebsiella pneumoniae, ATCC13883, 20 h, read-out: MIC, KP
  MIC: > 50 µM
[4]; Pseudomonas aeruginosa, read-out: MIC, PA
  MIC: > 50 µM

## FLPIVGRLISGIL [temporin-CPb]
[1]
  MIC, SA: 12.5 µM
Bacillus subtilis 168
  MIC, BS: 25 to 50 µM
[2]
  MIC, EC: >50 µM
[3]
  MIC, KP: >50 µM
[4]
  MIC, PA: >50 µM
[6]
  MIC, C. albicans: 50 µM
C. glabrata ATCC 2001
  MIC, C. glabrata: >50 µM
C. tropicalis ATCC 13803
  MIC, C. tropicalis: 6.2 to 12.5 µM

## IPPFIKKVLTTVF [temporin-CPa]
[1]
  MIC, SA: ≥25 µM
Bacillus subtilis 168
  MIC, BS: 50 µM
[2]
  MIC, EC: 12.5 µM
[3]
  MIC, KP: 50 µM
[4]
  MIC, PA: >50 µM
[6]
  MIC, C. albicans: 25 µM
C. glabrata ATCC 2001
  MIC, C. glabrata: 12.5 µM
C. tropicalis ATCC 13803
  MIC, C. tropicalis: 3.1 to 6.2 µM

## FLSAITSILGKFF [temporin-1SPa]
[1]
  MIC, SA: 6.3 µM
Bacillus subtilis 168
  MIC, BS: 12.5 µM
[2]
  MIC, EC: >50 µM
[3]
  MIC, KP: >50 µM
[4]
  MIC, PA: >50 µM
[5]
  HL50 (peptide concentration that causes 50% hemolysis): 37.5 µM
[6]
  MIC, C. albicans: 25 µM
C. glabrata ATCC 2001
  MIC, C. glabrata: 25 µM
C. tropicalis ATCC 13803
  MIC, C. tropicalis: 6.2 µM
